Measurements: publication PMC6407578, “Synthesis and biological evaluation of ursolic acid derivatives bearing triazole moieties as potential anti-Toxoplasma gondii agents” (Journal of Enzyme Inhibition and Medicinal Chemistry, 2019)
Read-outs that look alike come from different tables or passages of the source.

Legend:
[1] = test system: HeLa cells; test: Cytotoxicity on HeLa host cells (MTT); type: cell-based; conditions: median toxicity dose, cytotoxicity against host cells, 24 h
Method: (§1) The cytotoxicity of compounds was determined using the previously published thiazolyl blue-based colorimetric method. For this, HeLa cells were used as host cells and their ability to resist invasion by T. gondii RH strain tachyzoites in vitro was checked. The cells were plated in 96-well plates at an appropriate density to ensure exponential growth throughout the experimental period (3 × 10^3 cells per well) and then allowed to adhere for 24 h at 37 °C. The cells were infected with T. gondii (1.5 × 10^4 tachyzoites/well), followed by incubation for 24 h. All compounds were prepared in dimethyl sulfoxide (DMSO) at a stock concentration of 100 mM. Serial dilutions (1–1000 μM) of each compound were tested. Spiramycin was used as a positive control. After 24 h of incubation, 10 μL of MTT solution were added to each well and cells were incubated for a further 2 h. The optical density (OD) was read on a microplate reader at a wavelength of 492 nm. The IC50 in HeLa cells, IC50 in T. gondii and selectivity index were calculated using Microsoft Excel.

[2] = test system: T. gondii RH strain tachyzoites; test: In vitro T. gondii growth inhibition in HeLa host cells (MTT); type: cell-based, Toxoplasma gondii; conditions: for SI (selectivity index): IC50 in HeLa cells/IC50 in T. gondii; for IC50: median inhibitory concentration, tachyzoite inhibition, HeLa host cells, 24 h
Method: as §1

[3] = Liver/spleen indexes, serum ALT/AST, liver MDA/GSH in T. gondii-infected KM mice; type: in vivo; conditions: 100 mg/kg; for GSH content (liver homogenate): compared to the untreated group; for spleen index: effect on the infection-induced increase, not statistically significant
Method: (§2) Thirty female KM mice were used to establish an animal model of acute T. gondii infection. These were randomly divided into five groups: infected untreated, normal, infected with spiramycin treatment, infected with 1e treatment and infected with 3d treatment. Each group consisted of six mice. Four hours after infection, 100 mg/kg of the compounds was administered to the mice by gavage, once a day for 4 consecutive days, whereas the untreated group was administered the same dose of physiological saline. On the fifth day, blood from the eyes of mice was collected and they were sacrificed by cervical dislocation. Their abdominal cavity was rinsed with sterile physiological saline to collect the parasites/tachyzoites. These were counted under the light microscope, and the inhibition rate of parasites was calculated. The liver and spleen were dissected and liver and spleen indexes, serum alanine aminotransferase (ALT), aspartate aminotransferase (AST), and liver homogenate glutathione (GSH) and malonaldehyde (MDA) were determined.

[4] = test system: T. gondii tachyzoites; test: In vivo anti-T. gondii activity, acute infection model in KM mice (intraperitoneal tachyzoite count); parameters: species or system Toxoplasma gondii; conditions: T. gondii-infected KM mice, 100 mg/kg by gavage once a day for 4 days; for inhibitory rate of tachyzoites: ascitic fluid; for Amount of tachyzoite: intraperitoneal tachyzoites
Method: as §2

[5] = test system: T. gondii; parameters: method as in PMID 25288090; conditions: cited from earlier work
[6] = T. gondii-infected KM mice, compared with the untreated group

Row | Molecule | IC50 ([1]; Homo sapiens, HeLa) [µM] | SI (selectivity index) [2] | IC50 ([2]; Toxoplasma gondii) [µM] | inhibitory rate of tachyzoites [4] [%] | Amount of tachyzoite [4] | levels of MDA (liver homogenate) [3, 6] | spleen index ([3]; T. gondii-infected KM mice) | melting point [°C] | further results
1 | C[C@H]1[C@H](C)CC[C@]2(C(=O)O)CC[C@]3(C)C(=CC[C@@H]4[C@@]5(C)C/C(=C\c6cn(-c7ccccc7Cl)nn6)C(=O)C(C)(C)[C@@H]5CC[C@]43C)[C@H]12 [1e, (1S,2R,4aS,6aS,6bR,8aR,12aR,12bR,14bS,E)-11-((1–(2-chlorophenyl)-1H-1,2,3-triazol-4-yl)methylene)-1,2,6a,6b,9,9,12a-heptamethyl-10-oxo-1,3,4,5,6,6a,6b,7,8,8a,9,10,11,12,12a,12b,13,14b-octadecahydropicene-4a(2H)-carboxylic acid] | 466 | 1.95 | 240 | 37.0 | 141.8 ×10^4 | – | – | – | GSH content (liver homogenate) ([3]; T. gondii-infected KM mice): significantly increase; serum ALT and AST levels [3, 6]: striking reduction
2 | Spiramycin [reference compound] | – | 0.72 | – | 56.8 | 97.2 ×10^4 | significantly decreased | subjugated | – | IC50 [1]: 189 µM; IC50 [2]: 262 µM
3 | C[C@H]1[C@H](C)CC[C@]2(C(=O)OCCn3cnnc3-c3ccc([N+](=O)[O-])cc3)CC[C@]3(C)C(=CC[C@@H]4[C@@]5(C)CCC(O)C(C)(C)[C@@H]5CC[C@]43C)[C@H]12 (stereo partly drawn) [3d, 2 –(3-(4-nitrophenyl)-4H-1,2,4-triazol-4-yl)ethyl(1S,2R,4aS,6aS,6bR,8aR,12aR,12bR,14bS)-10-hydroxy-1,2,6a,6b,9,9,12a-heptamethyl-1,3,4,5,6,6a,6b,7,8,8a,9,10,11,12,12a,12b,13,14b-octadecahydropicene-4a(2H)-carboxylate] | 227 | 1.77 | 128 | 70.4 | 66.6 ×10^4 | significantly decreased | subjugated | – | GSH content (liver homogenate) ([3]; T. gondii-infected KM mice): significantly increase; serum ALT and AST levels [3, 6]: striking reduction
4 | Cc1ccc(-n2cc(CNC(=O)COC(=O)[C@]34CC[C@@H](C)[C@H](C)[C@H]3C3=CC[C@@H]5[C@@]6(C)CCC(O)C(C)(C)[C@@H]6CC[C@@]5(C)[C@]3(C)CC4)nn2)cc1 (stereo partly drawn) [2d, (1S,2R,4aS,6aS,6bR,8aR,12aR,12bR,14bS)-2-oxo-2-((1-p-tolyl-1H-1,2,3-triazol-4-yl)methylamino)ethyl-10-hydroxy-1,2,6a,6b,9,9,12a-heptamethyl-1,2,3,4,4a,5,6,6a,6b,7,8,8a,9,10,11,12,12a,12b,13,14b-icosahydropicene-4a-carboxylate] | > 1000 | – | > 1000 | – | – | – | – | 186 to 187 | –
5 | S=C1N=NC(c2cccs2)=N1 [compound 2, 3-(thiophen-2-yl)-1,2,4-triazole-5-thione] | – | – | – | – | – | – | – | – | selectivity value ([5]; 3[H]uracil incorporation method): 4.58; selectivity value ([5]; qRT-PCR): 5.21
6 | C[C@H]1[C@H](C)CC[C@]2(C(=O)O)CC[C@]3(C)C(=CC[C@@H]4[C@@]5(C)CC[C@H](O)C(C)(C)[C@@H]5CC[C@]43C)[C@H]12 [Ursolic Acid, Ursolic acid] | 44.8 | 0.62 | 72.2 | 65.4 | 77.9 ×10^4 | significantly decreased | subjugated | – | serum ALT and AST levels ([3]; mouse, in vivo): striking reduction
7 | C[C@H]1[C@H](C)CC[C@]2(C(=O)O)CC[C@]3(C)C(=CC[C@@H]4[C@@]5(C)C/C(=C\c6cn(-c7cccc(F)c7)nn6)C(=O)C(C)(C)[C@@H]5CC[C@]43C)[C@H]12 [1c, (1S,2R,4aS,6aS,6bR,8aR,12aR,12bR,14bS,E)-11-((1–(3-fluorophenyl)-1H-1,2,3-triazol-4-yl)methylene)-1,2,6a,6b,9,9,12a-heptamethyl-10-oxo-1,3,4,5,6,6a,6b,7,8,8a,9,10,11,12,12a,12b,13,14b-octadecahydropicene-4a(2H)-carboxylic acid] | > 1000 | – | > 1000 | – | – | – | – | > 250 | –
8 | C[C@H]1[C@H](C)CC[C@]2(C(=O)O)CC[C@]3(C)C(=CC[C@@H]4[C@@]5(C)C/C(=C\c6cn(-c7ccccc7)nn6)C(=O)C(C)(C)[C@@H]5CC[C@]43C)[C@H]12 [1a, (1S,2R,4aS,6aS,6bR,8aR,12aR,12bR,14bS,E)-1,2,6a,6b,9,9,12a-heptamethyl-10-oxo-11-((1-phenyl-1H-1,2,3-triazol-4-yl)methylene)-1,3,4,5,6,6a,6b,7,8,8a,9,10,11,12,12a,12b,13,14b-octadecahydropicene-4a(2H)-carboxylic acid] | > 1000 | – | > 1000 | – | – | – | – | > 250 | –
9 | C[C@H]1[C@H](C)CC[C@]2(C(=O)O)CC[C@]3(C)C(=CC[C@@H]4[C@@]5(C)C/C(=C\c6cn(-c7ccc(F)cc7)nn6)C(=O)C(C)(C)[C@@H]5CC[C@]43C)[C@H]12 [1d, (1S,2R,4aS,6aS,6bR,8aR,12aR,12bR,14bS,E)-11-((1–(4-fluorophenyl)-1H-1,2,3-triazol-4-yl)methylene)-1,2,6a,6b,9,9,12a-heptamethyl-10-oxo-1,3,4,5,6,6a,6b,7,8,8a,9,10,11,12,12a,12b,13,14b-octadecahydropicene-4a(2H)-carboxylic acid] | > 1000 | – | > 1000 | – | – | – | – | > 250 | –
